From PubChem BioAssay AID1159559 (GlaxoSmithKline (GSK), 2015) come the findings set out here.

SMILES strings stand for the structures.

The test has as its system T. cruzi Tulahuen in NIH-3T3, beta-gal fluorescence, 4 d. Kind of test: T. cruzi intracellular growth inhibition, cell-based (AID 1159559).

Take `Cc1[nH]n2c(=O)c3c(nc2c1-c1ccc(Br)cc1)CCCC3`: the IC50 was 1 µM.
Regarding `Cc1cc2nc(N3CC[C@H]3C(N)=O)nc(Nc3cc(C4CC4)[nH]n3)c2s1`, the IC50 is 6.3 µM.
The value for `COc1ccccc1CNc1cc(C2CC2)nc(-c2nccn2C)n1` was 0.79 µM; that for `COc1ccccc1C=CCN1C[C@H]2CCC[C@@H](C1)C2(O)c1cccnc1` (some centres not stated) was 0.05 µM.
With `Cc1cc(Nc2ccc(C#N)c(Cl)c2C)n[nH]1` the figure was 25 µM; with `COc1ccc(-c2nc3ncccc3o2)cc1NC(=O)c1cccs1`, 2 µM; with `Cc1ncsc1CNc1cnc(-c2ccc3c(c2)OCCO3)c(-c2cnn(C)c2)c1`, 13 µM.

The IC50 is the concentration that inhibits the measured activity by half.
